Where only a bound is given, the exact number is not on record here.

Broadly, the Dmax is the greatest extent of degradation seen. One may read the DC50 as the concentration at which degradation of the target reaches its halfway point.

Test [1] concerns the target T1, MK2 (Homo sapiens, UniProt P49137). The test can be described thus: MK2 degradation in human SW1353 cells (MSD, 24 h). The note with it: for Dmax: read-out: MK2 MSD SW 1353 24 h Dmax %; for DC50: read-out: MK2 MSD SW1353 degradation 24 h GMean External Abs DC50. It is filed as cell-based. More on the design: endogenous in cells; host or cells: SW-1353 (ATCC HTB-94); key to MK2 MSD SW1353 degradation 24 h GMean External Abs DC50: A (<0.001 μM); B (0.001-0.01 μM); C (0.01-0.1 μM); D (>0.1 μM); —: “-”=not tested or inactive; key to MK2 MSD SW 1353 24 h Dmax %: —: “-”=not tested or inactive. As to the method: MK2 Degradation in Human SW1353 Cells
The human chondrocyte cancer cell line SW-1353 (ATCC(HTB-94)) was cultured in 96 well plates (Corning 3894) at a density of 200,000 cells per well in 100 microlitres in complete growth medium of Leibovitz's L-15 Medium (Gibco) pus 10% fetal Bovine Serum (Corning) and Penicillin/Streptomycin (SolarBio) at 37 degrees Celsius. A serial dilution of each compound (usually 3 to 5 fold serial dilutions up to 10 separate concentration points) was added to individual wells from a 10 millimolar stock solution, at a background concentration of 0.1% DMSO and the cells were shaken at 600 rpm for 5 minutes and then were cultured for 24 hours at 37 degrees Celsius. Separately, a custom MSD (MesoScaleDiscovery, L15XA-3) plate for detection of human MK2 was prepared by coating the plate with the commercial AbCam ab247272 reagent in 1×Phosphate Buffered Saline at 40 microlitres per well and incubated at 4 degrees Celsius overnight. The next day, the MSD plate was washed with 150 microlitres of Tween buffered saline, blocked with MSD blocking buffer (3% Blocker A from MSD), and washed again.
(§1) The cell plate was centrifuged at 3,200 g for 5 minutes and the supernatant was discarded and 100 microlitres of RIPA lysis buffer (containing proteinase inhibitors, Boston BioProducts BP-115D) was added and the plate was sealed and shaken on ice for 20 minutes. The plate was centrifuged as before and 70 microlitres of sample lysate was added to the MSD plates and they were shaken at room temperature for 1 hour at 600 rpm. The MSD plate was washed 3 times as before and then the primary MK2 detection antibody (Santa Cruz sc-100393) was added at a final concentration of 1 microgram per ml at 25 microlitres per well and shaken at room temperature for 1 hour at 600 rpm.
(§2) After 3 more washes, the secondary detection antibody (SULFO-Tag anti rabbit antibody R32AB-5) was added at a final concentration of 1 microgram per ml at 25 microlitres per well and shaken at room temperature for 1 hour at 600 rpm. After 3 more washes, the 1×MSD (diluted from 5× concentrate with water) reading buffer was added at 150 microlitres per well and read on the MSD instrument Meso Sector S 600.
(§3) The inhibition/degradation curves and DC50 values were plotted and calculated using XL Fit (version v5.3.1.3) using equation 201 and a 4 parameter logistic model whereby fit=(A+((B−A)/(1+((x/C)D))) where A is the Bottom and B is the Top and C is the IC50 and D is the slope and high C is the signal for the DMSO treated cells and Low C is the signal is the signal for the lysis buffer.

The target in test [2] is T1, MK2. The test can be described thus: MK2 degradation in human THP-1 monocytic cells (MSD, 24 h). The note with it: for Dmax: THP-1, THP-1 cells; for DC50: read-out: MK2 MSD THP-1 degradation 24 h GMean External Abs DC50. It is filed as cell-based. Set-up: endogenous in cells; key to MK2 MSD THP-1 degradation 24 h GMean External Abs DC50: A (<0.001 μM); B (0.001-0.01 μM); C (0.01-0.1 μM); D (>0.1 μM); —: “-”=not tested or inactive. As to the method: MK2 Degradation in Human THP-1 Monoctyic Cells
The human monocytic cancer cell line THP-1 (ATCC (TIB-202)) was cultured in 96 well plates (Corning 3894) at a density of 200,000 cells per well in 100 microlitres in complete growth medium of RPMI 1640 (Gibco) pus 10% fetal Bovine Serum (Corning) and Penicillin/Streptomycin (SolarBio) at 37 degrees Celsius and 5% CO2. A serial dilution of each compound (usually 3 to 5 fold serial dilutions up to 10 separate concentration points) was added to individual wells from a 10 millimolar stock solution, at a background concentration of 0.1% DMSO and the cells were shaken at 600 rpm for 5 minutes and then were cultured for 24 hours at 37 degrees Celsius and 5% carbon dioxide. Separately, a custom MSD (MesoScaleDiscovery, L15XA-3) plate for detection of human MK2 was prepared by coating the plate with the commercial AbCam ab247272 reagent in 1×Phosphate Buffered Saline at 40 microlitres per well and incubated at 4 degrees Celsius overnight. The next day, the MSD plate was washed with 150 microlitres of Tween buffered saline, blocked with MSD blocking buffer (3% Blocker A from MSD), and washed again.
as §1, §2, §3

T1 sequence (P49137 whole entry): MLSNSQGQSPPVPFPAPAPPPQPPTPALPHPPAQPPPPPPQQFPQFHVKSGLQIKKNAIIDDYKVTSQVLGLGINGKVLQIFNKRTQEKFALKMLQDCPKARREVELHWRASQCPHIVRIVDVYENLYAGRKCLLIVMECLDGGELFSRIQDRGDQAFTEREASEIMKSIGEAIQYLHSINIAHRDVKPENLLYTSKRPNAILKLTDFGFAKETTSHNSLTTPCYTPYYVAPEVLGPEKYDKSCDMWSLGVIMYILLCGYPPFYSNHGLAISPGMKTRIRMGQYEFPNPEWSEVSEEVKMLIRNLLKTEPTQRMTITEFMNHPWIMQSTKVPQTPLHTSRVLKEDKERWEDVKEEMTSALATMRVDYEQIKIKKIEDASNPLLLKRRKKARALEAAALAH

Take `C[C@@H]1Cc2oc(-c3ccnc(-c4ccc(N5CCN(CC6CCN(c7cccc8c7n(C)c(=O)n8C7CCC(=O)NC7=O)CC6)CC5)nc4)c3)cc2C(=O)N1` (stereo partly shown) [Compound I-416]: the Dmax in test [1] is 50 to 75%; in test [2] it was < 50%. In addition, the DC50 in test [1] was 10 to 100 nM; in test [2] (THP-1 cells), > 100 nM.
For `Cn1c(=O)n(C2CCC(=O)NC2=O)c2ccc(N3CCC(CN4CCN(c5ccc(-c6cc(-c7cc8c([nH]7)C7(CC7)CNC8=O)ccn6)cn5)CC4)CC3)cc21` (stereo not shown) [Compound I-243] the same measures were > 75%, 50 to 75%, < 1 nM and < 1 nM.
Turning to `C[C@@H]1CNc2c(sc3ccc4nc(N5C[C@@H]6C[C@H]5CN6CC5CCN(c6cccc7c6n(C)c(=O)n7C6CCC(=O)NC6=O)CC5)ccc4c23)C(=O)N1` (stereo partly shown) [Compound I-187], the Dmax in test [1] and in test [2] was < 50% throughout. Besides, the DC50 in test [1] and in test [2] (THP-1 cells) was > 100 nM throughout.
Turning to `C[C@@H]1CNc2c(sc3ccc4nc(-c5cccc(N6CCN(CCN7CCC(CCc8cccc9c8n(C)c(=O)n9C8CCC(=O)NC8=O)CC7)CC6)c5)ccc4c23)C(=O)N1` (stereo partly shown) [Compound I-105], the Dmax in test [1] and in test [2] was > 75% in each case. In addition, the DC50 in test [1] is 1 to 10 nM; in test [2] (THP-1 cells), < 1 nM.
As for `C[C@@H]1CNc2c(sc3ccc4nc(-c5cccc(C6CCN(CCN7CCC(CCc8cccc9c8n(C)c(=O)n9C8CCC(=O)NC8=O)CC7)CC6)c5)ccc4c23)C(=O)N1` (stereo partly shown) [Compound I-296], in test [1], the “MK2 MSD SW 1353 24 h Dmax %” value is “—” and the DC50 fell in the range of 10 to 100 nM. Also, the DC50 in test [2] (THP-1 cells) is 1 to 10 nM.
Turning to `C[C@@H]1CNc2c(sc3ccc4nc(N5CC6CCC(C5)N6CC5CCN(c6ccc7c(c6)n(C)c(=O)n7C6CCC(=O)NC6=O)CC5)ccc4c23)C(=O)N1` (stereo partly shown) [Compound I-433], the Dmax in test [1] and in test [2] was < 50% each time. Besides, the DC50 in test [1] and in test [2] (THP-1 cells) was > 100 nM throughout.
As to `Cn1c(=O)n(C2CCC(=O)NC2=O)c2ccc(N3CCC(CN4CCN(c5ccc6cc(-c7cc(Nc8ccnc(N)n8)cc8cn[nH]c78)oc6c5)CC4)CC3)cc21` (stereo not shown) [Compound I-454], the Dmax in test [1] and in test [2] was < 50% in each case. Besides, the DC50 in test [1] and in test [2] (THP-1 cells) was > 100 nM in each case.
As for `Cn1c(=O)n(C2CCC(=O)NC2=O)c2cccc(N3CC(N4CCN(c5ccc(-c6cc(-c7cc8c([nH]7)C7(CCCC7)CNC8=O)ccn6)cc5)CC4)C3)c21` (stereo not shown) [Compound I-418], the Dmax in test [1] and in test [2] was > 75% each time. Also, the figures for the DC50 in test [1] and in test [2] (THP-1 cells) were < 1 nM and 1 to 10 nM, respectively.
Regarding `O=C1CCN(c2cncc3c(N4CCC(CN5CCN(c6ccc(-c7cc(-c8cc9c([nH]8)CCNC9=O)ccn7)cc6)CC5)CC4)cccc23)C(=O)N1` [Compound I-210], the Dmax in test [1] is > 75%; in test [2], 50 to 75%. The DC50 in test [1] and in test [2] (THP-1 cells) was 10 to 100 nM throughout.
As to `C[C@@H]1CNc2c(sc3ccc4nc(-c5cc(N6CCN(CCCCCCCCc7cccc8c7n(C)c(=O)n8C7CCC(=O)NC7=O)CC6)ccc5F)ccc4c23)C(=O)N1` (stereo partly shown) [Compound I-286], the Dmax is > 75% in test [1] and 50 to 75% in test [2]. For the same compound, the DC50 in test [1] and in test [2] (THP-1 cells) was 10 to 100 nM in each case.
As for `C[C@@H]1CNc2c(sc3ccc4nc(-c5ccc(N6CCN(CCCc7cccc8c7n(C)c(=O)n8C7CCC(=O)NC7=O)CC6)nc5)ccc4c23)C(=O)N1` (stereo partly shown) [Compound I-288], the Dmax in test [1] and in test [2] was > 75% each time. Further, the 50% degradation concentration (DC50) in test [1] and in test [2] (THP-1 cells) was < 1 nM each time.
Take `Cn1c(=O)n(C2CCC(=O)NC2=O)c2ccc(N3CC(CN4CCN(c5ccc(-c6cc(-c7cc8c(s7)CCNC8=O)ccn6)cc5)CC4)C3)cc21` (stereo not shown) [Compound I-407]: in test [1], the “MK2 MSD SW 1353 24 h Dmax %” value was “—” and the DC50 was > 100 nM. Also, in test [2], the Dmax was < 50%. Moreover, the DC50 in test [2] (THP-1 cells) is > 100 nM.
Turning to `C[C@@H]1CNc2c(sc3ccc4nc(-c5ccc(N6CCC(CCN7CCN(c8cccc9c8n(C)c(=O)n9C8CCC(=O)NC8=O)CC7)CC6)cc5)ccc4c23)C(=O)N1` (stereo partly shown) [Compound I-128], the Dmax in test [1] and in test [2] was > 75% in each case. Moreover, the 50% degradation concentration (DC50) in test [1] and in test [2] (THP-1 cells) was 1 to 10 nM throughout.
Turning to `Cn1c(=O)n(C2CCC(=O)NC2=O)c2cccc(CCCCCCN3CCC4(CC3)CNC(=O)c3c4[nH]c4c3CCc3cnc(-c5ccccc5F)cc3-4)c21` (stereo not shown) [Compound I-300], the Dmax in test [1] and in test [2] was < 50% each time. In addition, the DC50 in test [1] and in test [2] (THP-1 cells) was > 100 nM throughout.
With `C[C@@H]1CNc2c(sc3ccc4nc(-c5ccc(N6CCN(CC7CCN(c8ccc9c(c8)n(C)c(=O)n9C8CCC(=O)NC8=O)CC7)CC6)cc5F)ccc4c23)C(=O)N1` (stereo partly shown) [Compound I-289], the Dmax in test [1] and in test [2] was > 75% throughout. Moreover, the figures for the DC50 in test [1] and in test [2] (THP-1 cells) were 1 to 10 nM and < 1 nM, respectively.
As for `C[C@@H]1CNc2c(sc3ccc4nc(-c5ccc(N6CCN(CC7CN(c8ccc9c(c8)n(C)c(=O)n9C8CCC(=O)NC8=O)C7)CC6)cc5F)ccc4c23)C(=O)N1` (stereo partly shown) [Compound I-237], the Dmax in test [1] and in test [2] was > 75% throughout. The DC50 in test [1] and in test [2] (THP-1 cells) was < 1 nM throughout.
In the case of `C[C@@H]1CNc2c(sc3ccc4nc(-c5ccc(N6CCC(CN7CCC(c8cccc9c8n(C)c(=O)n9C8CCC(=O)NC8=O)CC7)CC6)cc5)ccc4c23)C(=O)N1` (stereo partly shown) [Compound I-98], the greatest degradation seen (Dmax) in test [1] and in test [2] was > 75% in each case. Further, the DC50 in test [1] and in test [2] (THP-1 cells) was < 1 nM in each case.
Turning to `C[C@@H]1CNc2c(sc3ccc4nc(N5C[C@H]6CC[C@@H]5CN6CC5CCN(c6cccc7c6n(C)c(=O)n7C6CCC(=O)NC6=O)CC5)ccc4c23)C(=O)N1` (stereo partly shown) [Compound I-452], the Dmax in test [1] and in test [2] was 50 to 75% each time. Also, the figures for the DC50 in test [1] and in test [2] (THP-1 cells) were 1 to 10 nM and 10 to 100 nM, respectively.
Regarding `C[C@@H]1CNc2c(sc3ccc4nc(N5CCN(CC6CCN(c7ccc(-c8ccc9c(c8)n(C)c(=O)n9C8CCC(=O)NC8=O)cc7)CC6)CC5)ccc4c23)C(=O)N1` (stereo partly shown) [Compound I-184], the “MK2 MSD SW1353 degradation 24 h GMean External Abs DC50” value in test [1] is “—”. Further, the Dmax in test [1] and in test [2] was > 75% throughout. In addition, the “MK2 MSD THP-1 degradation 24 h GMean External Abs DC50” value in test [2] (THP-1 cells) was “—”.
`C[C@@H]1Cc2oc(-c3ccnc(-c4ccc(N5CCN(CC6CCN(c7ccc8c(c7)n(C)c(=O)n8C7CCC(=O)NC7=O)CC6)CC5)nc4)c3)cc2C(=O)N1` (stereo partly shown) [Compound I-209]: in test [1], the “MK2 MSD SW1353 degradation 24 h GMean External Abs DC50” value is on record as “—” and the Dmax was < 50%. In test [2], the Dmax is < 50%. Further, the DC50 in test [2] (THP-1 cells) was > 100 nM.

These data come from US20230135894A1, “MK2 DEGRADERS AND USES THEREOF” (Kymera Therapeutics, Inc., priority 2021, published 2023).
